pKd: −log10 of the molar value.
Tests used:
EP2 receptor = EP2 receptor (Mus musculus, UniProt Q62053); conditions: read-out: affinity for the EP2 receptor; cited from earlier work
endothelial cells = conditions: in vitro; cited from earlier work
[1] = tested on: segments of rat iliac arteries; assay: microvascular outgrowth from rat iliac artery ringlets cultured in Matrigel; format: cell-based, Sprague-Dawley rats
Description: Each sample was placed on a reduced-growth factor Matrigel coated coverglass slide in a culture dish filled with serum-free medium. […] The cultures were incubated at 37° C. in a humidified atmosphere with 5% CO2. Digital photographs were taken of growth after 96 hours.
Growth Factor Reduced Matrigel (Passaniti, A., et al., Lab. Invest. 1992 67:518-528) was purchased from Becton Dickinson (Mountain View, Calif.). Cell culture grade PGE1 was purchased from Sigma Chemical. (St. Louis, Mo.). RPIM-1640 and other cell culture reagents were purchased from GIBCO Invitrogen Corp. (Grand Island, N.Y.).
Male Sprague-Dawley rats, two-months old, were used in this study. All animal care, treatments, and procedures were approved by the institutional Committee on Animal Research. The rats were sacrificed by intraperitoneal injection of sodium pentobarbital (50 mg/kg) followed by bilateral thoracotomy and the removal of segments of iliac arteries.
The iliac artery segments isolated from Sprague-Dawley rats were sectioned into ringlets and cultured attached to Matrigel-coated glass coverslips. The coverslips were used as the supporting platform to facilitate samples processing for histological staining and examination. Coverslips were coated as follows. Growth Factor Reduced Matrigel (Becton Dickinson, Mountain View, Calif.) was diluted 3-fold in serum-free RPMI-1640 in a 35-mm culture dish on ice. The diluted Matrigel was then spread onto cold sterilized glass coverslips using a sterilized glass slide as spreader. The coated coverslips were placed in 35-mm culture dishes and incubated at 37° C. for 1 hr to allow the Matrigel to solidify. Iliac artery ringlets were placed on top of Matrigel coated coverslips and covered by 50 μl cold Growth Factor Reduced Matrigel which had been kept in liquid form. After a 5-min incubation at 37° C. to allow the Matrigel to polymerize, 3 ml of serum-free RPMI 1640 medium supplemented with 1×penicillin-streptomycin-fangizone (Cell Culture Facility, University of California, San Francisco) was added. […] The iliac artery ringlet cultures were maintained at 37 ° C. in a humidified atmosphere with 5% CO2.
After 96 hours of incubation, the iliac artery ringlet cultures were examined. Microvascular growths were photographed using a professional DCS-420 digital camera (Eastman Kodak, Rochester, N.Y.) connected to an Olympus microscope and an Apple Macintosh PowerMac computer. All samples were photographed and the images were stored for later analysis. The digital images were analyzed using ChemiImager 4000 software (Alpha Innotech Corporation, San Leandro, Calif.) to determine the maximum length of the microvascular growths.
Statistical analysis was performed using computer software from Primer of Biostatistics, 3rd ed. (Glantz SA, McGraw-Hill, Inc. New York, 1992). The data involving different time points were first analyzed by one-way analysis of variance (ANOVA). If ANOVA indicated a significant difference, the Student-Neuman-Keuls test was used to perform pair-wise comparisons.

[2] = three months intracavernous injections three times a week; patients completing treatment; cited from earlier work
[3] = three months intracavernous injections three times a week; cited from earlier work
VEGF = conditions: systemic treatment of patients; cited from earlier work

Chain of EP2 receptor (Q62053 whole entry): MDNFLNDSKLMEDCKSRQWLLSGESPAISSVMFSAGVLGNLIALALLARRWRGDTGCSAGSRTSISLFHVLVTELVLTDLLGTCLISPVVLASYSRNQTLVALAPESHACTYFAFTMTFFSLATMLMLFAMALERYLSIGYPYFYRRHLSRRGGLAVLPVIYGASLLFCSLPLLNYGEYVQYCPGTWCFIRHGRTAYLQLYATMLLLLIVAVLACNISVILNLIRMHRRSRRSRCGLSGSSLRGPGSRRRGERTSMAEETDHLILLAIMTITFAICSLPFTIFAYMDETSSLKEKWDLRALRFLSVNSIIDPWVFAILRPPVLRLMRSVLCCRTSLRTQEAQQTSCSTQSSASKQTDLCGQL

Compound | pKd (EP2 receptor) | effect on VEGF (endothelial cells) | peak microvascular growth ([1]; 1 μM PGE1) [micrometers] | Length of longest microvascular growth ([1]; 1 μM PGE1, 96 hours) [μm] | Length of longest microvascular growth ([1]; 10 μM PGE1, 96 hours) [μm] | Length of longest microvascular growth ([1]; 20 μM PGE1, 96 hours) [μm] | Length of longest microvascular growth ([1]; 30 μM PGE1, 96 hours) [μm] | Length of longest microvascular growth ([1]; 60 μM PGE1, 96 hours) [μm] | effect on microvascular outgrowth ([1]; primary cultures of rat iliac artery segments) | patients reporting recovery of spontaneous erections sufficient for intercourse [2] | recovery of spontaneous erections [3] | responsiveness to oral sildenafil therapy [3] | effect on VEGF expression (VEGF)
CCCCC[C@H](O)/C=C/[C@H]1[C@H](O)CC(=O)[C@@H]1C/C=C\CCCC(=O)O [PGE2, prostaglandin E2] | ~8.00 | up-regulate VEGF | – | – | – | – | – | – | – | – | – | – | –
Prostaglandin E1 [PGE1] | – | – | 680 | 680 | 360 | 100 | 30 | 5 | enhance microvascular outgrowth | 8 of the 12 | more likely to recover spontaneous erections | more likely to be responsive to oral sildenafil therapy | up-regulate expression of VEGF
